Test results from the NIST ThermoML archive (doi:10.1016/j.jct.2011.08.016).
± gives the expanded uncertainty stated by the source.

Experiment: xn = mol fraction of the nth substance listed
Settings: Liquid, Vibrating tube method

CCCCCCCCCC [decane] + CCCCCCC
Settings	mass density [kg/m3]
333.12 K, 4000 kPa, x2 = 0.0531	701.18 ± 0.43
333.12 K, 4000 kPa, x2 = 0.777	668.42 ± 0.44
333.12 K, 5000 kPa, x2 = 0.0531	702.16 ± 0.43
333.12 K, 5000 kPa, x2 = 0.777	669.49 ± 0.45
333.12 K, 6000 kPa, x2 = 0.0531	703.1 ± 0.43
333.12 K, 6000 kPa, x2 = 0.777	670.55 ± 0.46
333.12 K, 7000 kPa, x2 = 0.0531	704.05 ± 0.44
333.12 K, 7000 kPa, x2 = 0.777	671.62 ± 0.46
333.12 K, 8000 kPa, x2 = 0.0531	704.99 ± 0.44
333.12 K, 8000 kPa, x2 = 0.777	672.68 ± 0.47
333.12 K, 9000 kPa, x2 = 0.0531	705.9 ± 0.45
333.12 K, 9000 kPa, x2 = 0.777	673.73 ± 0.47
333.12 K, 10000 kPa, x2 = 0.0531	706.8 ± 0.45
333.12 K, 10000 kPa, x2 = 0.777	674.77 ± 0.48
333.12 K, 10990 kPa, x2 = 0.0531	707.69 ± 0.46
333.12 K, 10990 kPa, x2 = 0.777	675.8 ± 0.49
333.12 K, 12000 kPa, x2 = 0.0531	708.56 ± 0.47
333.12 K, 12000 kPa, x2 = 0.777	676.81 ± 0.49
333.12 K, 13000 kPa, x2 = 0.0531	709.43 ± 0.47
333.12 K, 13000 kPa, x2 = 0.777	677.81 ± 0.5
333.12 K, 14000 kPa, x2 = 0.0531	710.28 ± 0.48
333.12 K, 14000 kPa, x2 = 0.777	678.79 ± 0.51
333.12 K, 15000 kPa, x2 = 0.0531	711.14 ± 0.48
333.12 K, 15000 kPa, x2 = 0.777	679.76 ± 0.51
333.12 K, 16000 kPa, x2 = 0.0531	711.96 ± 0.49
333.12 K, 16000 kPa, x2 = 0.777	680.71 ± 0.52
333.12 K, 17000 kPa, x2 = 0.0531	712.79 ± 0.49
333.12 K, 17000 kPa, x2 = 0.777	681.65 ± 0.53
333.12 K, 18000 kPa, x2 = 0.0531	713.6 ± 0.5
333.12 K, 18000 kPa, x2 = 0.777	682.58 ± 0.54
333.12 K, 19000 kPa, x2 = 0.0531	714.39 ± 0.51
333.12 K, 19000 kPa, x2 = 0.777	683.49 ± 0.54
333.12 K, 20000 kPa, x2 = 0.0531	715.18 ± 0.51
333.12 K, 20000 kPa, x2 = 0.777	684.39 ± 0.55
333.12 K, 21000 kPa, x2 = 0.0531	715.96 ± 0.52
333.12 K, 21000 kPa, x2 = 0.777	685.27 ± 0.56
333.12 K, 22000 kPa, x2 = 0.0531	716.72 ± 0.52
333.12 K, 22000 kPa, x2 = 0.777	686.1 ± 0.56
333.12 K, 23000 kPa, x2 = 0.0531	717.46 ± 0.53
333.12 K, 23000 kPa, x2 = 0.777	686.9 ± 0.57
333.12 K, 24000 kPa, x2 = 0.0531	718.21 ± 0.54
333.12 K, 24000 kPa, x2 = 0.777	687.68 ± 0.58
333.12 K, 25000 kPa, x2 = 0.0531	718.95 ± 0.54
333.12 K, 25000 kPa, x2 = 0.777	688.47 ± 0.59
333.13 K, 1000 kPa, x2 = 0.952	653.95 ± 0.43
333.13 K, 2000 kPa, x2 = 0.952	655.14 ± 0.44
333.13 K, 3000 kPa, x2 = 0.952	656.33 ± 0.44
333.13 K, 4000 kPa, x2 = 0.952	657.51 ± 0.45
333.13 K, 5000 kPa, x2 = 0.952	658.67 ± 0.46
333.13 K, 6000 kPa, x2 = 0.952	659.82 ± 0.46
333.13 K, 7000 kPa, x2 = 0.952	660.95 ± 0.47
333.13 K, 8000 kPa, x2 = 0.952	662.06 ± 0.48
333.13 K, 9000 kPa, x2 = 0.952	663.16 ± 0.48
333.13 K, 10000 kPa, x2 = 0.952	664.24 ± 0.49
333.13 K, 10990 kPa, x2 = 0.952	665.3 ± 0.5
333.13 K, 12000 kPa, x2 = 0.952	666.34 ± 0.5
333.13 K, 13000 kPa, x2 = 0.952	667.37 ± 0.51
333.13 K, 14000 kPa, x2 = 0.952	668.38 ± 0.52
333.13 K, 15000 kPa, x2 = 0.952	669.39 ± 0.52
333.13 K, 16000 kPa, x2 = 0.952	670.37 ± 0.53
333.13 K, 17000 kPa, x2 = 0.952	671.33 ± 0.54
333.13 K, 18000 kPa, x2 = 0.952	672.29 ± 0.55
333.13 K, 19000 kPa, x2 = 0.952	673.23 ± 0.55
333.13 K, 20000 kPa, x2 = 0.952	674.14 ± 0.56
333.13 K, 21000 kPa, x2 = 0.952	675.04 ± 0.57
333.13 K, 22000 kPa, x2 = 0.952	675.93 ± 0.58
333.13 K, 23000 kPa, x2 = 0.952	676.79 ± 0.59
333.13 K, 24000 kPa, x2 = 0.952	677.64 ± 0.59
333.13 K, 25000 kPa, x2 = 0.952	678.45 ± 0.6
333.14 K, 1000 kPa, x2 = 0.2594	690.74 ± 0.42
333.14 K, 2000 kPa, x2 = 0.2594	691.66 ± 0.42
333.14 K, 3000 kPa, x2 = 0.2594	692.62 ± 0.43
333.14 K, 4000 kPa, x2 = 0.2594	693.57 ± 0.43
333.14 K, 5000 kPa, x2 = 0.2594	694.49 ± 0.43
333.14 K, 6000 kPa, x2 = 0.2594	695.43 ± 0.44
333.14 K, 7000 kPa, x2 = 0.2594	696.4 ± 0.44
333.14 K, 8000 kPa, x2 = 0.2594	697.34 ± 0.45
333.14 K, 9000 kPa, x2 = 0.2594	698.3 ± 0.45
333.14 K, 10000 kPa, x2 = 0.2594	699.23 ± 0.46
333.14 K, 10990 kPa, x2 = 0.2594	700.16 ± 0.47
333.14 K, 12000 kPa, x2 = 0.2594	701.08 ± 0.47
333.14 K, 13000 kPa, x2 = 0.2594	701.98 ± 0.48
333.14 K, 14000 kPa, x2 = 0.2594	702.87 ± 0.48
333.14 K, 15000 kPa, x2 = 0.2594	703.75 ± 0.49
333.14 K, 16000 kPa, x2 = 0.2594	704.61 ± 0.5
333.14 K, 17000 kPa, x2 = 0.2594	705.47 ± 0.5
333.14 K, 18000 kPa, x2 = 0.2594	706.33 ± 0.51
333.14 K, 19000 kPa, x2 = 0.2594	707.13 ± 0.51
333.14 K, 20000 kPa, x2 = 0.2594	707.94 ± 0.52
333.14 K, 21000 kPa, x2 = 0.2594	708.75 ± 0.53
333.14 K, 22000 kPa, x2 = 0.2594	709.53 ± 0.53
333.14 K, 23000 kPa, x2 = 0.2594	710.3 ± 0.54
333.14 K, 24000 kPa, x2 = 0.2594	711.03 ± 0.55
333.14 K, 25000 kPa, x2 = 0.2594	711.74 ± 0.55
